Data: patent publication US12318434B2, “Alkaline phosphate-based oncology treatments” (Theriva Biologics, Inc., priority 2019, dated 2025)
“Also recorded” adds a separate entry of the source.

B1: SYN BIAPII: intestinal alkaline phosphatase; BIAP II with stop codon and no leader sequence (SYN-020) (SEQ ID NO: 41) (protein)
chain: LIPAEEENPAFWNRQAAQALDVAKKLQPIQTAAKNVILFLGDGMGVPTVTATRILKGQMNGKLGPETPLAMDQFPYVALSKTYNVDRQVPDSAGTATAYLCGVKGNYRTIGVSAAARYNQCNTTRGNEVTSVINRAKKAGKAVGVVTTTRVQHASPAGAYAHTVNRNWYSDADLPADAQKNGCQDIAAQLVYNMDIDVILGGGRMYMFPEGTPDPEYPDDASVNGVRKDKQNLVQEWQAKHQGAQYVWNRTALLQAADDSSVTHLMGLFEPADMKYNVQQDHTKDPTLAEMTEAALQVLSRNPRGFYLFVEGGRIDHGHHDGKAYMALTEAIMFDNAIAKANELTSELDTLILVTADHSHVFSFGGYTLRGTSIFGLAPGKALDSKSYTSILYGNGPGYALGGGSRPDVNGSTSEEPSYRQQAAVPLASETHGGEDVAVFARGPQAHLVHGVQEETFVAHIMAFAGCVEPYTDCNLPAPATATSIPD
modifications: Synthetic polymer.

Key:
[1] = system: BALB/c mice inoculated with CT26 murine colorectal cancer cells; assay: First set of experiments: stool consistency and weight change after 5-FU with or without IAP; format: in vivo
Text: (§1) The study conducted included evaluation of the effects of administration of an IAP (“SYN-020” is synonymous with IAP and SYN BIAPII) along with a chemotherapeutic treatment with 5-fluorouracil (5-FU) in a murine model. […] Stool consistency was scored as the following: Score 0=Normal (no diarrhea); Score 2=Loose, formed stools; and Score 4=Diarrhea.
The first set of experiments included three groups of BALB/c mice inoculated with CT26 murine colorectal cancer cells into the right flank: (1) a no-treatment control group of 18 male mice (“untreated”); (2) a group of 18 male mice (“vehicle+5-FU”) that received an intraperitoneal (IP) QD (once daily) dose of 30 mg/kg of 5-FU for 5 consecutive days (days 0-4) and a vehicle was administered PO (orally) BID (twice a day) throughout the study (days −3 to +26); and (3) a group of 18 male mice (“SYN BIAPII+5-FU”) that received an IP QD dose of 30 mg/kg of 5-FU for 5 consecutive days (days 0-4) and an IAP (SYN-020) in a dose of 0.5 mg/kg, administered PO BID throughout the study (days −3 to +26).

[2] = system: BALB/c mice inoculated with CT26 murine colorectal cancer cells; assay: Second set of experiments: mean daily body weight change after 5-FU with or without IAP; format: in vivo; settings: 5-FU 30 mg/kg IP QD days 0-4
Method: (§2) The second set of experiments included four groups of BALB/c mice inoculated with CT26 murine colorectal cancer cells into the right flank: (1) a vehicle control group of 30 male mice (“vehicle”); (2) a group of 30 male mice that received a daily treatment dose of 100 U/dose, 0.5 mg/kg of SYN BIAP II alone (“SYN BIAP II”); (3) a group of 30 male mice (“vehicle+5-FU”) that received an IP QD dose of 30 mg/kg of 5-FU for 5 consecutive days (days 0-4) and vehicle treatment; and (4) a group of 30 male mice (“SYN BIAPII+5-FU”) that received an IP QD dose of 30 mg/kg of 5-FU for 5 consecutive days (days 0-4) and an IAP (SYN-020) in a dose of 100 U/dose, 0.5 mg/kg, administered PO BID throughout the study (days −3 to +26).
Cumulative differences in body weight change between treatment groups through 50% common group survival (Day (−3)-16) were assessed by calculating the area under the curve (AUC) for each animal using the trapezoidal transformation.

[3] = system: BALB/c mice inoculated with CT26 murine colorectal cancer cells; settings: for Duration of Diarrhea (score = 4): Days < 4: animal-days with stool score < 4; for Duration of Diarrhea (score = 4): Days = 4: animal-days with stool score = 4 (diarrhea); for Duration of Diarrhea (score = 4): % Days = 4: percentage of total animal-days with diarrhea (score=4)
Text: as §1, §2
Arrows indicate 5-FU administration days. […] The statistical significance of group differences in daily stool scores was assessed on each day by Mann-Whitney rank-sum analysis.
Table 1 below compares the duration of 5-FU-induced diarrhea by calculating the percentage of total animal-days with diarrhea (score=4). Groups were compared by chi-square test.

[4] = 5-FU 30 mg/kg IP QD days 0-4, vehicle or SYN-020 0.5 mg/kg PO BID days -3 to +26

Row | Molecule | effect of 5-FU administration on stools and weight ([1]; 5-FU 30 mg/kg IP QD days 0-4, all of the treated animals) | day by which loose stools/diarrhea and associated weight loss recovered [1, 4] | day on which loose stools/diarrhea and associated weight loss peaked [1, 4] | day by which animals regained lost weight [2] | day on which chemotherapy-induced weight loss peaked [2] | chemotherapy-induced weight loss at peak (percent change compared to body weight at Day 0) ([2]; Day 7) | day by which incidence of loose stools generally resolved ([3]; 5-FU 30 mg/kg IP QD days 0-4) | day on which incidence of loose stools or diarrhea was first observed ([3]; 5-FU 30 mg/kg IP QD days 0-4) | Duration of Diarrhea (score = 4): Days < 4 [3] | Duration of Diarrhea (score = 4): Days = 4 [3] | animal-days with diarrhea compared to untreated animals ([3]; mouse, in vivo) | Duration of Diarrhea (score = 4): % Days = 4 [3] | recovery from the loose stools/diarrhea symptoms and associated weight loss ([1]; SYN-020 0.5 mg/kg PO BID plus 5-FU, compared with vehicle+5-FU, p<0.03) | stool consistency throughout the course of the analysis ([3]; mouse, in vivo, 0.5 mg/kg)
1 | O=c1[nH]cc(F)c(=O)[nH]1 [vehicle + 5-FU, 5-fluorouracil] | caused loose stools/diarrhea, as well as associated weight loss; also recorded: caused loose stools/diarrhea, and associated weight loss | ≤ 9 days | 6 days | ~20 days | 7 days | ~−20% | ≤ 12 days | 5 days | 245 | 43 | statistically significant cumulative increase | 14.93% | – | –
2 | B1 | – | – | – | – | – | – | – | – | 299 | 1 | – | 0.33% | significantly faster recovery | normal stool consistency
